According to patent US20050019825A9, “Common ligand mimics: pseudothiohydantoins” (priority 2002, published 2005):
pIC50: −log10 of the molar value. Read-outs that look alike come from different tables or passages of the source.

What was measured:
[1] = molecular target: T1, lactate dehydrogenase (LDH) (Oryctolagus cuniculus, UniProt P13491); test: LDH kinetic assay, spectrophotometric oxidation of NADH (340 nm); type: biochemical, Rabbit; conditions: for pIC50: common ligand mimics, Examples 23/24, LDH from Rabbit Muscle
T1 construct: 10 μl of LDH from Rabbit Muscle; from tissue; host or cells: rabbit muscle
Description: For LDH analysis, the compounds were screened using a kinetic protocol that spectrophotometrically evaluates oxidation of NADH.
Stock solutions of each of the reagents were prepared in the following concentrations. Dilutions of the stock solutions were prepared prior to running the assay in the concentrations indicated below.
The LDH reaction was monitored at 340 nm prior to and after addition of the inhibitor to detect background reaction with the inhibitor. Solutions of 100 μl of the inhibitors in DMSO were prepared to provide a final DMSO concentration of 5% of the total assay volume. These solutions were incubated for 6 minutes at 25° C. in a 990 μl of a solution containing 0.1 M HEPES, pH 7.4, 10 μM NADH, and 2.5 mM of pyruvate. The reaction was then initiated with 10 μl of LDH from Rabbit Muscle (0.5 μg/ml; 1:2000 dilution of 1.0 mg/ml). After the enzyme was added, the solution was mixed for 20 seconds, and the reaction was run for 10 minutes. After a 50 second lag, the samples were read in a Cary spectrophotometer at 340 nm. Reading of the samples was continued until 300 seconds. Cuvette #1 contained the control reaction (no inhibitor), and cuvette #2 contained the positive control reaction in which Cibacron Blue at 10.3 μM was substituted for inhibitor to yield 50 to 70% inhibition. The substrate was kept at a level at least 10 times the Km.

[2] = molecular target: dihydrofolate reductase (DHFR) (UniProt P00374); test: DHFR kinetic assay, spectrophotometric oxidation of NADH (340 nm); type: biochemical
Description: For DHFR analysis, the compounds were screened using a kinetic protocol that spectrophotometrically evaluates oxidation of NADH.
Stock solutions of each of the reagents were prepared in the following concentrations. Dilutions of the stock solutions were prepared prior to running the assay in the concentrations indicated below. H2 folate was dissolved in DMSO to about 10 mM and then diluted with water to a concentration of 0.1 mM.
The DHFR reaction was monitored at 340 nm prior to and after addition of the inhibitor to detect background reaction with the inhibitor. Solutions of 100 μl of the inhibitors in DMSO were prepared to provide a final DMSO concentration of 5% of the total assay volume. These solutions were incubated for 6 minutes at 25° C. in a 992 μl of a solution containing 0.1 M Tris-HCl, pH 7.0, 150 mM KCl, 5 μM H2 folate, and 52 μM NADH. The oxidation reaction was then initiated with 8 μl of DHFR (0.047 mg/ml). After the enzyme was added, the solution was mixed for 20 seconds, and the reaction was run for 10 minutes. After a 50 second lag, the samples were read in a Cary spectrophotometer at 340 nm. Reading of the samples was continued until 300 seconds. Cuvette #1 always contained the control reaction (no inhibitor), and cuvette #2 always contained the positive control reaction in which Cibacron Blue at 3 μM was substituted for inhibitor to yield 50 to 70% inhibition. The substrate was kept at a level at least 10 times the Km.

[3] = molecular target: T2, HMG CoA reductase (HMGCoAR) (UniProt P04035); test: HMGCoAR kinetic assay, spectrophotometric oxidation of NADPH (340 nm); type: biochemical; conditions: for pIC50: common ligand mimics, Examples 23/24
T2 sequence (P04035 1-888): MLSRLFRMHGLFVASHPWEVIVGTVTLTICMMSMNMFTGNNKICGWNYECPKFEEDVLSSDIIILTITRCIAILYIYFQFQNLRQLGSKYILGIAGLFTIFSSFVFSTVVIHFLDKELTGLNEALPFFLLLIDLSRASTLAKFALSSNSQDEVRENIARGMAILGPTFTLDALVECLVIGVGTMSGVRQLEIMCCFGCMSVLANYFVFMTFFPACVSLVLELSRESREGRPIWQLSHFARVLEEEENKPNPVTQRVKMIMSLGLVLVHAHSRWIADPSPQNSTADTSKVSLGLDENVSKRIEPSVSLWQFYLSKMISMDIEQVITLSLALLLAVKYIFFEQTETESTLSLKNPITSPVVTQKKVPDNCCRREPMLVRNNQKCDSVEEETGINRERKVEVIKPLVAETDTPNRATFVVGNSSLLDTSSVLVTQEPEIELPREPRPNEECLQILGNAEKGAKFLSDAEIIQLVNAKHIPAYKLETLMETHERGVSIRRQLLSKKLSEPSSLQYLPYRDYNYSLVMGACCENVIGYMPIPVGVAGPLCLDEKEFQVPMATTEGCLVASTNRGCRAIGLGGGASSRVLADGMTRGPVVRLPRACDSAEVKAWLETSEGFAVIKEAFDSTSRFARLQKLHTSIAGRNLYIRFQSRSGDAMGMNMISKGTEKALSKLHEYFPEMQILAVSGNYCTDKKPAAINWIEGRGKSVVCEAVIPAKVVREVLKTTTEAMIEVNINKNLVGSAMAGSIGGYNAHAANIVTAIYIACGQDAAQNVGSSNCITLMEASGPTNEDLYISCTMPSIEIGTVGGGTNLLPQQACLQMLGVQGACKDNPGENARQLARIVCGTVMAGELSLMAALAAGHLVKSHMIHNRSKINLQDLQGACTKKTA
Description: For HMGCoAR analysis, the compounds were screened using a kinetic protocol that spectrophotometrically evaluates oxidation of NADPH.
Stock solutions of each of the reagents were prepared in the following concentrations. Dilutions of the stock solutions were prepared prior to running the assay in the concentrations indicated below. The enzyme was diluted in 1 M NaCl. To prepare the dilution buffer, 10 μl of HMGCoAR (1 mg/ml) was mixed with 133 μl of 3 M NaCl solution and 257 μl of 25 mM KH2PO4 buffer (pH 7.5; containing 50 mM NaCl, […] EDTA (ethylenediaminetetraacetic acid), and 5 mM DTT (dithiothreitol).
The HMGCoAR reaction was monitored at 340 nm prior to and after addition of the inhibitor to detect background reaction with the inhibitor. Solutions of 100 μM of the inhibitors in DMSO were prepared to provide a final DMSO concentration of 2% of the total assay volume. These solutions were incubated for 6 minutes at 25° C. in a 994 μl of a solution containing 25 mM KH2PO4, pH 7.5, 160 μM HMGCoA, 13 μM NADPH, 50 mM NaCl, 1 mM EDTA, and 5 mM DTT. The reaction was then initiated with 5 μl of HMGCoAR enzyme (1:40 dilution of 0.65 mg/ml). After the enzyme was added, the solution was mixed for 20 seconds, and the reaction was run for 10 minutes. After a 50 second lag, the samples were read in a Cary spectrophotometer at 340 nm. Reading of the samples was continued until 300 seconds. Cuvette #1 contained the control reaction (no inhibitor), and cuvette #2 contained the positive control reaction in which Cibacron Blue at 2.05 μM was substituted for inhibitor to yield 50 to 70% inhibition. The substrate was kept at a level at least 10 times the Km.

[4] = common ligand mimics, Examples 23/24; read-out: IC50 for DHFR
[5] = read-out: IC50 for DHFR; common ligand mimics, Examples 23/24

dihydrofolate reductase (DHFR), sequence (P00374 whole entry): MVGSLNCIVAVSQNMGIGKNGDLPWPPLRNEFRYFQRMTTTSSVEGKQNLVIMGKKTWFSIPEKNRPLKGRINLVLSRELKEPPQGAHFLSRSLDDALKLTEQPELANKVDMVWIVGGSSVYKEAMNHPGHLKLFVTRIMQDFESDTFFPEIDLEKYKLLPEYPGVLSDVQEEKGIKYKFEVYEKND

| Compound | pIC50 [1] | pIC50 [2, 4] | inhibition of HMGCoAR (in words) ([3]; Example 24 (FIG. 6)) | pIC50 [2, 5] | pIC50 [3] | inhibition at 10.3 µM ([1]; Cibacron Blue at 10.3 μM, read-out: inhibition of LDH, positive control) [%] |
| --- | --- | --- | --- | --- | --- | --- |
| N=C1NC(=O)C(=Cc2ccc(C(=O)O)cc2)S1 [4-(2-imino-4-oxo-thiazolidin-5-ylidenemethyl)-benzoic acid] | < 4.00 | < 4.70 | – | – | – | – |
| COc1cc(O)ccc1C=C1SC(=N)NC1=O [5-(4-hydroxy-2-methoxy-benzylidene)-2-imino-thiazolidin-4-one] | – | < 4.00 | no inhibition | – | – | – |
| COc1cc(C=C2SC(N)=NC2=O)ccc1O [5-(4-hydroxy-3-methoxy-benzylidene)-2-imino-thiazolidin-4-one] | < 4.00 | – | – | < 4.00 | < 4.00 | – |
| N=C1NC(=O)C(=Cc2ccc(O)c([N+](=O)[O-])c2)S1 [5-(4-hydroxy-3-nitro-benzylidene)-2-imino-thiazolidin-4-one] | 4.55 | – | – | < 4.12 | < 4.05 | – |
| Nc1c(S(=O)(=O)O)cc(Nc2ccc(Nc3nc(Cl)nc(Nc4ccccc4S(=O)(=O)O)n3)c(S(=O)(=O)O)c2)c2c1C(=O)c1ccccc1C2=O [Cibacron Blue, reference compound] | – | – | – | – | – | 50 to 70 |
